Test results reported in patent US4117122A, “11-Aminoalkylmorphanthridin-11-ols” (Richardson-Merrell Inc., priority 1976, dated 1978).

Tests used:
[1] = oral LD50 in standard animal tests; format: in vivo; conditions: for LD50: in vivo, standard animal tests, approximately
Description: (§1) The compounds of the present invention are unique in pharmacologic activity.

[2] = test system: reserpine-induced depression; test: antagonism of reserpine-induced depression in mice (standard antidepressant test); format: in vivo; conditions: for antidepressant potency relative to imipramine: compared with imipramine; for antagonism of reserpine-induced depression: mice, intraperitoneal doses of 5 to 30 mg/kg
Description: as §1

[3] = Description: as §1

SMILES | oral LD50 compared with imipramine [1] | LD50 [1] [mg/kg] | antidepressant potency relative to imipramine [2] | antagonism of reserpine-induced depression [2] | anticholinergic activity [3]
CN(C)CCCC1(O)c2ccccc2CNc2ccc(Cl)cc21 (stereo not shown) [2-Chloro-11-(3-dimethylaminopropyl)-5,6-dihydromorphanthridin-11-ol] | substantially greater than that of imipramine | ~175 | at least ten times more potent than that of imipramine | antagonize reserpine-induced depression in mice | no significant anticholinergic activity
CN(C)CCCC1(O)c2ccccc2C=Nc2ccccc21 (stereo not shown) [11-(3-Dimethylaminopropyl)morphanthridin-11-ol] | substantially greater than that of imipramine | ~130 | at least ten times more potent than that of imipramine | antagonize reserpine-induced depression in mice | no significant anticholinergic activity
